# Test results taken from patent US20200190062A1, “HETEROCYCLIC COMPOUND AND PHARMACEUTICAL COMPOSITION COMPRISING SAME” (BEYONDBIO INC., priority 2015, published 2020).
# Counter-ions that a name gives are not always drawn.
# Assays:
# [1] = system: Human glioblastoma U-87MG cell line; assay: Tumor growth inhibition by combined administration in an animal model (U-87MG xenograft); conditions: oral daily for 30 days; for tumor growth inhibition: vs vehicle control
# Experimental: Human glioblastoma U-87MG cell line of 5×10^6 cells/0.1 ml PBS was injected subcutaneously into the right flank of a Balb/c nude mouse. When a tumor grew to 150 mm^3, 5 mice were assigned for each group so that tumor sizes of all groups are consistent and a test compound was orally administered daily. Tumor size was measured three times a week using Caliper. […] For the combined administration, TMZ was orally administered daily for the first 5 days. For the single administration, the compound of Example 61 was orally administered daily for 30 days. For the combined administration, the compound of Example 61 was administered orally daily for 34 days. 20% propylene glycol (PG) was used as a vehicle control. Tumor size (volume) was calculated from the tumor length measured in each animal using the following Equation 1.
# Tumor volume=(length of major axis×length of minor axis)/2 [Equation 1]
# [2] = system: Human colon carcinoma HCT116 cell line; assay: Tumor growth inhibition in an animal model (HCT116 xenograft); type: in vivo, Balb/c nude mouse; conditions: oral daily for 12 days; for tumor growth inhibition: vs vehicle control
# Experimental: Tumor size was measured twice a week using Caliper. […] A vehicle control was 20% propylene glycol (PG) and a positive control was Xeloda at 100 mg/kg.
# Aβ (amyloid β protein) = assay: Inhibition of Aβ generation in B103/APP cells (Aβ42 ELISA); type: cell-based; conditions: Rattus norvegicus, 72 hrs
# Experimental: The APP gene was inserted into B103 cells so that APP could be stably expressed and the resulting B103/APP cells were used to confirm inhibition of APP phosphorylation and Aβ generation.
# Further, to confirm whether Aβ generation is reduced due to APP phosphorylation inhibition, 5×10^5 B103/APP cells were cultured in a 6-well plate for 16 hrs. Afterwards, the compounds obtained in the above Examples were added at 100 nM, 75 nM, 50 nM, 25 nM, 12.5 nM to a medium containing 500 ug/ml of G418 and 0.5% FBS and incubated for 72 hrs. After 72 hrs, the amount of Aβ was quantified using the medium by Human Aβ42 ELISA kit (Invitrogen).
# [3] = system: human normal lung cell line MRC5; assay: Cell cycle change by flow cytometry, normal cells; type: cell-based; conditions: 24 hrs
# Experimental: (§1) A human colon carcinoma cell line HCT116 and a human normal lung cell line MRC5 were cultured in DMEM medium containing 10% FBS. Each cultured cells were harvested, placed in 6 well plate at 1×10^6 cells/well, and cultured at 5% CO2 and 37° C. for 16 hrs. The compounds of the above Examples at 75 nM and 150 nM in DMEM containing 5% FBS were added to the cells in each well, and after 24 hrs a change in the cell cycle was analyzed using a flow cytometry. Media of treatment groups and a control group were removed, trypsin was added to isolate cells from the plates and the cells were centrifuged at 1000 g for 3 min. The isolated cells were washed with a cold phosphate buffer (PBS) two times. Afterwards, 1 ml of 70% ethanol was added to the cells and the cells were maintained at 4° C. for 30 min or more to fix the cells. The fixed cells were centrifuged at 1000 g for 3 min to remove ethanol, and washed with phosphate buffer (PBS) two times to remove ethanol completely. The washed cells were suspended in 250 ul of PBS, 6.25 ul of 10 mg/ml RNaseA was added to the suspension and reacted for 15 min at room temperature to degrade all RNA. 12.5 ul of 1 mg/ml propidium iodide (PI, sigma) was added to stain intracellular DNA. The cell cycles of 10,000 stained cells were measured using FACS calibur (Becton-Dickinson, USA) and cell numbers present in G1, S and G2/M phases were calculated as percentage using a cell cycle analysis program. Tables 3 and 4 show the results of cell cycle analysis for the compound obtained in Example 1 in cancer cells and normal cells, respectively.
# [4] = system: human colon carcinoma cell line HCT116; assay: Cell cycle change by flow cytometry, cancer cells; type: cell-based; conditions: 24 hrs
# Experimental: as §1
compound,measurement,setting,value
"Nc1nccc(-c2ccc(O)c(-c3ccnc(N)n3)n2)n1 [Example 61, 2,6-bis(2-aminopyrimidin-4-yl)pyridin-3-ol 3hydrochloride]",Tumor size,[1]; 15 mpk alone,3503.3 ± 674.9 mm^3
same,tumor growth inhibition,[1]; 15 mpk alone,16.8%
same,Tumor size,[1]; 30 mpk alone,2015.0 ± 1023 mm^3
same,tumor growth inhibition,[1]; 30 mpk alone,52.2%
same,Tumor size,[2]; 1 mpk,1082.4 ± 994.6 mm^3
same,tumor growth inhibition,[2]; 1 mpk,41.3%
same,Tumor size,[2]; 3 mpk,773.7 ± 253.9 mm^3
same,tumor growth inhibition,[2]; 3 mpk,58.0%
same,Tumor size,[2]; 10 mpk,647.4 ± 462.1 mm^3
same,tumor growth inhibition,[2]; 10 mpk,64.9%
same,Tumor size,[2]; 30 mpk,403.4 ± 224.1 mm^3
same,tumor growth inhibition,[2]; 30 mpk,78.1%
"Cc1cc(-c2nc(-c3ccnc(N)c3F)ccc2O)nc(N)n1 [Example 71, 2′-amino-6-(2-amino-6-methylpyrimidin-4-yl)-3′-fluoro-[2,4′-bipyridin]-5-ol 3hydrochloride]",inhibition at 0.0125 µM,Aβ (amyloid β protein); 12.5 nM,37.6%
same,inhibition at 0.025 µM,Aβ (amyloid β protein); 25 nM,36.2%
same,inhibition at 0.05 µM,Aβ (amyloid β protein); 50 nM,46.7%
same,inhibition at 0.075 µM,Aβ (amyloid β protein); 75 nM,76.8%
same,inhibition at 0.1 µM,Aβ (amyloid β protein); 100 nM,100%
"Nc1nccc(-c2ccc(O)c(-c3ccnc(N)n3)n2)n1 [Example 1, 2,6-bis(2-aminopyrimidin-4-yl)pyridin-3-ol]",G1 (cell numbers as percentage),"[3]; MRC5, 75 nM",50.7%
same,G2/M (cell numbers as percentage),"[3]; MRC5, 75 nM",22.8%
same,Polyploidy (cell numbers as percentage),"[3]; MRC5, 75 nM",8.8%
same,S (cell numbers as percentage),"[3]; MRC5, 75 nM",9.1%
same,Sub-G1 (cell numbers as percentage),"[3]; MRC5, 75 nM",8.8%
same,G1 (cell numbers as percentage),"[3]; MRC5, 150 nM",44.0%
same,G2/M (cell numbers as percentage),"[3]; MRC5, 150 nM",26.6%
same,Polyploidy (cell numbers as percentage),"[3]; MRC5, 150 nM",10.2%
same,S (cell numbers as percentage),"[3]; MRC5, 150 nM",6.8%
same,Sub-G1 (cell numbers as percentage),"[3]; MRC5, 150 nM",12.8%
same,G1 (cell numbers as percentage),"[4]; HCT116, 75 nM",22.3%
same,G2/M (cell numbers as percentage),"[4]; HCT116, 75 nM",51.5%
same,Polyploidy (cell numbers as percentage),"[4]; HCT116, 75 nM",16.3%
same,S (cell numbers as percentage),"[4]; HCT116, 75 nM",5.3%
same,Sub-G1 (cell numbers as percentage),"[4]; HCT116, 75 nM",4.9%
same,G1 (cell numbers as percentage),"[4]; HCT116, 150 nM",4.3%
same,G2/M (cell numbers as percentage),"[4]; HCT116, 150 nM",54.4%
same,Polyploidy (cell numbers as percentage),"[4]; HCT116, 150 nM",23.3%
same,S (cell numbers as percentage),"[4]; HCT116, 150 nM",2.6%
same,Sub-G1 (cell numbers as percentage),"[4]; HCT116, 150 nM",5.8%
